Assays:
Experiment in all cases: biochemical
Type in all cases: biochemical
[1] = target: 363 human kinases (including Aurora A/B/C) (Homo sapiens, UniProt Q9Y463); conditions: DYRK1B, [ATP] 20 µM; for remaining activity at 0.1 µM: 100 nM; for remaining activity at 0.1 µM / remaining activity at 0.5 µM: read-out: % Enzyme Activity (relative to DMSO controls)
Description: (§1) However, the Aurora A/B selectivity ratios derived from our in vitro and in vivo data can be compared to prioritize inhibitors.

[2] = target: 363 human kinases (including Aurora A/B/C) (Homo sapiens, UniProt O75676); conditions: MSK2/RPS6KA4; for remaining activity at 0.1 µM: 100 nM; for remaining activity at 0.1 µM / remaining activity at 0.5 µM: read-out: % Enzyme Activity (relative to DMSO controls)
Description: as §1

[3] = target: T1, 363 human kinases (including Aurora A/B/C) (Homo sapiens, UniProt P42681); conditions: TXK; for remaining activity at 0.1 µM: 100 nM; for remaining activity at 0.1 µM / remaining activity at 0.5 µM: read-out: % Enzyme Activity (relative to DMSO controls)
T1 sequence (P42681 1-527): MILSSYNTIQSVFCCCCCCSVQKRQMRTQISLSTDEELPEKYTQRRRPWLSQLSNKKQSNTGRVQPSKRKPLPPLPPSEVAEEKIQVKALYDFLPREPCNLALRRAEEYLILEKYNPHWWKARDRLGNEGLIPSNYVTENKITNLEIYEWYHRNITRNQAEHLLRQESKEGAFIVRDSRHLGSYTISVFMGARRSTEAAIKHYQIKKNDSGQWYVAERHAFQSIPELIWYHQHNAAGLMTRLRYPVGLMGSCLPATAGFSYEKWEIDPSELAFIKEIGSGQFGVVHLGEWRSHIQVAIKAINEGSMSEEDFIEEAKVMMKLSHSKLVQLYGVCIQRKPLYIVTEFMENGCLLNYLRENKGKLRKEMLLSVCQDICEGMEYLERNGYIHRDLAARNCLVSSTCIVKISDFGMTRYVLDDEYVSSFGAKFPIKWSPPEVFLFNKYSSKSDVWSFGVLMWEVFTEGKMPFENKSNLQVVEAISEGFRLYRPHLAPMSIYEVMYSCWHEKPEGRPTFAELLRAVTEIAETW
Description: as §1

[4] = target: T2, 363 human kinases (including Aurora A/B/C) (Homo sapiens, UniProt O95835); conditions: LATS1; for remaining activity at 0.1 µM: 100 nM; for remaining activity at 0.1 µM / remaining activity at 0.5 µM: read-out: % Enzyme Activity (relative to DMSO controls)
T2 sequence (O95835 1-1130): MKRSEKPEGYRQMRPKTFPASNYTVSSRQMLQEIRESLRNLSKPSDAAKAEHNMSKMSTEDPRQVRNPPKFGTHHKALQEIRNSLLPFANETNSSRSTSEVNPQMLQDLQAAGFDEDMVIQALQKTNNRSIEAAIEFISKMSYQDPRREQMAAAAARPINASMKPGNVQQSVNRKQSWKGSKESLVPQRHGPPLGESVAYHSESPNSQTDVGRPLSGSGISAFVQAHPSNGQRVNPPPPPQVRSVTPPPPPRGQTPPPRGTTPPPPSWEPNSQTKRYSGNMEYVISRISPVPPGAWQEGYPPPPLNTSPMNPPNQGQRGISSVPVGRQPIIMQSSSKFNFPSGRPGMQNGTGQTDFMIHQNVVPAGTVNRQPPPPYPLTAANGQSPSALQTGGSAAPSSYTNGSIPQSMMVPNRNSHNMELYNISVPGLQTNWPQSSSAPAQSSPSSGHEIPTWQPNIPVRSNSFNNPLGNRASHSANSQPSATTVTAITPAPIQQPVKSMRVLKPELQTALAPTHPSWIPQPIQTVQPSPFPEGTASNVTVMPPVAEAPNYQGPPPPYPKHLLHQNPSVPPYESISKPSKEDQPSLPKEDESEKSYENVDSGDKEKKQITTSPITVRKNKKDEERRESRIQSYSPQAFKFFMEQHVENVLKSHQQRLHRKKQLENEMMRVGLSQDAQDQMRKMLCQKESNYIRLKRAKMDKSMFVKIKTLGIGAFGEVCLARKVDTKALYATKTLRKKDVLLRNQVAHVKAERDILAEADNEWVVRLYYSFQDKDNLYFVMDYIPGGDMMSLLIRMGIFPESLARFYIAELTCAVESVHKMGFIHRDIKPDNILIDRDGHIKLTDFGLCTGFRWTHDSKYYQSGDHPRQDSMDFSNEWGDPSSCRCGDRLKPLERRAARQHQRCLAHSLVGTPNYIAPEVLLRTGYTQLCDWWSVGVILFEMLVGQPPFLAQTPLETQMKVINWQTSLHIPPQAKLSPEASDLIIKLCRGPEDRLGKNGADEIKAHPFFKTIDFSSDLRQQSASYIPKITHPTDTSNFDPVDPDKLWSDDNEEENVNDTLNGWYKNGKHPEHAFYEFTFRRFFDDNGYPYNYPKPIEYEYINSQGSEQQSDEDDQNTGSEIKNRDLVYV
Description: as §1

[5] = target: 363 human kinases (including Aurora A/B/C) (Homo sapiens, UniProt P28482); conditions: ERK2/MAPK1, [ATP] 50 µM; for remaining activity at 0.1 µM: 100 nM; for remaining activity at 0.1 µM / remaining activity at 0.5 µM: read-out: % Enzyme Activity (relative to DMSO controls)
Description: as §1

[6] = target: 363 human kinases (including Aurora A/B/C) (Homo sapiens, UniProt P49760); conditions: CLK2, [ATP] 50 µM; for remaining activity at 0.1 µM: 100 nM; for remaining activity at 0.1 µM / remaining activity at 0.5 µM: read-out: % Enzyme Activity (relative to DMSO controls)
Description: as §1

[7] = target: 363 human kinases (including Aurora A/B/C) (Homo sapiens, UniProt Q13627); conditions: DYRK1/DYRK1A, [ATP] 50 µM; for remaining activity at 0.1 µM: 100 nM; for remaining activity at 0.1 µM / remaining activity at 0.5 µM: read-out: % Enzyme Activity (relative to DMSO controls)
Description: as §1

363 human kinases (including Aurora A/B/C) (Homo sapiens, UniProt P49760), sequence (P49760 whole entry): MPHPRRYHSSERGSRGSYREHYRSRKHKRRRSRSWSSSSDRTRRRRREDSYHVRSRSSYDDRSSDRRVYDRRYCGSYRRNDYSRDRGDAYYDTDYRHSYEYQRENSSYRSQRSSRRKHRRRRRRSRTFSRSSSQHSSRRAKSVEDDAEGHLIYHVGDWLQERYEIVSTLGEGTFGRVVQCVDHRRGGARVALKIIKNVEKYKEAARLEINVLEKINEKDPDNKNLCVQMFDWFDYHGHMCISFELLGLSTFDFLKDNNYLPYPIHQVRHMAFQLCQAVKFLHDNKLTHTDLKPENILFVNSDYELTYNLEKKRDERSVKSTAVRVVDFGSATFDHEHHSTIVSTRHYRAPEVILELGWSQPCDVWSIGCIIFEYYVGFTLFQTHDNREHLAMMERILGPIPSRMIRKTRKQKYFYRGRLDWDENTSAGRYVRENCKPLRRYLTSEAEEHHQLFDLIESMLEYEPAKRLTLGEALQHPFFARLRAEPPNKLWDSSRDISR
363 human kinases (including Aurora A/B/C) (Homo sapiens, UniProt Q9Y463), sequence (Q9Y463 whole entry): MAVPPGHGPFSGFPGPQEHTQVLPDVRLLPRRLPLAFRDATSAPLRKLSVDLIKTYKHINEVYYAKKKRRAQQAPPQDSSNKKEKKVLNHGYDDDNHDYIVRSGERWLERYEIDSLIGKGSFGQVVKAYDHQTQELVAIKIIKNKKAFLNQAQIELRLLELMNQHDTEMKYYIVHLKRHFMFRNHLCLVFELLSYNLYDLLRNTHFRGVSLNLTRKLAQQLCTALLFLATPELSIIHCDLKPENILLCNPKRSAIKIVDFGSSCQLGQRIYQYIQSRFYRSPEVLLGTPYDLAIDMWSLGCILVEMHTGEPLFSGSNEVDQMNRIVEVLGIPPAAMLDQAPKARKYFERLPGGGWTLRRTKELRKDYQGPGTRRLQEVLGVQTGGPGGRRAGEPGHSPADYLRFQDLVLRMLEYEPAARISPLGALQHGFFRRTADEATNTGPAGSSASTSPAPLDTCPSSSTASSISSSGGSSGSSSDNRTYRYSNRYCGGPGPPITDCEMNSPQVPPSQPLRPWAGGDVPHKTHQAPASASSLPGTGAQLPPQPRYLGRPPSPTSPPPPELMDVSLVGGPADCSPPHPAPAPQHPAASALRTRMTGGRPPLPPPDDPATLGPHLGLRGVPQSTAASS
363 human kinases (including Aurora A/B/C) (Homo sapiens, UniProt O75676), sequence (O75676 whole entry): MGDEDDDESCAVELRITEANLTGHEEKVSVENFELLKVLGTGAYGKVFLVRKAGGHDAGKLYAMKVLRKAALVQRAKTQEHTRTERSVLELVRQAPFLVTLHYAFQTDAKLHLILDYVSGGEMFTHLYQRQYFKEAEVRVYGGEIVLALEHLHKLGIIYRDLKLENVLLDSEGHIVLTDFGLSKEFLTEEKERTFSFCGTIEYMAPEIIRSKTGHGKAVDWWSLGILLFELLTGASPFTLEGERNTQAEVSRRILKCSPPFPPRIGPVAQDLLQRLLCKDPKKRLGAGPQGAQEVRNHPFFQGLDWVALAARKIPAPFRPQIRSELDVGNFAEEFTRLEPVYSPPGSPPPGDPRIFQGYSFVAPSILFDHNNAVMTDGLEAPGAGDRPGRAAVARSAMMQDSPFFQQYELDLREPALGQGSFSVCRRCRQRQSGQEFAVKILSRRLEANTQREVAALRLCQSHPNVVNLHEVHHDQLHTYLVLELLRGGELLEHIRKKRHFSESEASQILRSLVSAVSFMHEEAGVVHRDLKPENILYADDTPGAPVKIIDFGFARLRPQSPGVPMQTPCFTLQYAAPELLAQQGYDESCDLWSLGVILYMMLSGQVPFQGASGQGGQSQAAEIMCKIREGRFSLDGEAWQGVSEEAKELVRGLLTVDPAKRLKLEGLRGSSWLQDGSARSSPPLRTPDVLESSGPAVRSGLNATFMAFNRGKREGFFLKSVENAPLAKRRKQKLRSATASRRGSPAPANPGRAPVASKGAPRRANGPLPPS
363 human kinases (including Aurora A/B/C) (Homo sapiens, UniProt P28482), sequence (P28482 whole entry): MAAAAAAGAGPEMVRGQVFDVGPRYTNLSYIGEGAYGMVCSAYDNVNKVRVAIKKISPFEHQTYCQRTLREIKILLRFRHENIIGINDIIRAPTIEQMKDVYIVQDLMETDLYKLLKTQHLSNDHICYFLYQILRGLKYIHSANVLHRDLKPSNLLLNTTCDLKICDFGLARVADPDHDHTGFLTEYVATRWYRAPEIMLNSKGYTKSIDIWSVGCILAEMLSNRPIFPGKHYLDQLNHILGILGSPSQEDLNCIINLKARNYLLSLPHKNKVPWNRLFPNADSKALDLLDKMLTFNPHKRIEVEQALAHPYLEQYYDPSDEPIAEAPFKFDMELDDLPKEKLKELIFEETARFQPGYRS

Row | Structure (SMILES) | remaining activity at 0.1 µM [1] [%] | remaining activity at 0.5 µM ([1]; 500 nM) [%] | remaining activity at 0.1 µM [2] [%] | remaining activity at 0.5 µM ([2]; 500 nM) [%] | remaining activity at 0.1 µM [3] [%] | remaining activity at 0.5 µM ([3]; 500 nM) [%] | remaining activity at 0.1 µM [4] [%] | remaining activity at 0.5 µM ([4]; 500 nM) [%] | remaining activity at 0.1 µM [5] [%] | remaining activity at 0.5 µM ([5]; 500 nM) [%] | remaining activity at 0.1 µM [6] [%] | remaining activity at 0.5 µM ([6]; 500 nM) [%] | remaining activity at 0.1 µM [7] [%] | remaining activity at 0.5 µM ([7]; 500 nM) [%] | further results
1 | O=C(O)[C@]1(Cc2cccc(Nc3nccs3)n2)CC[C@@H](Oc2cccc(Cl)c2F)CC1 [MK-5108] | 91.7 | 68.3 | 103 | 98.8 | 35.6 | 10.5 | 98.5 | 94.1 | 98.4 | 106 | 72.9 | 25.4 | 100 | 89.7 | 
2 | O=C(c1cccc(Cl)c1F)N1CCN(Cc2cccc(Nc3nccs3)n2)CC1 [MK-8745] |  | 95.3 |  | 96.1 |  | 80.3 |  | 96.8 |  | 104 |  | 99 |  | 96.7 | % Enzyme Activity (relative to DMSO controls) ([1]; 500 nM): 94.80%; % Enzyme Activity (relative to DMSO controls) ([2]; 500 nM): 96.01%; % Enzyme Activity (relative to DMSO controls) ([3]; 500 nM): 80.24%; % Enzyme Activity (relative to DMSO controls) ([4]; 500 nM): 96.46%; % Enzyme Activity (relative to DMSO controls) ([5]; 500 nM): 103.36%; % Enzyme Activity (relative to DMSO controls) ([6]; 500 nM): 95.24%; % Enzyme Activity (relative to DMSO controls) ([7]; 500 nM): 93.95%
3 | CCn1cc(-c2ccnc3[nH]c(-c4cccc(CN(C)C)c4)cc23)c(-c2ccc(NC(=O)N(C)C)cc2)n1 [GSK1070916] | 99.6 |  | 103 |  | 86.3 |  | 97.5 |  | 101 |  | 93.6 |  | 97.5 |  | 

From article PMC4685510, “A Cell Biologist’s Field Guide to Aurora Kinase Inhibitors” (Frontiers in Oncology, 2015)
